Reference: the NIST ThermoML archive (doi:10.1016/j.fluid.2016.10.026)

Assay: refractive index (Na D-line) (dimensionless)
Settings: 101 kPa, Liquid, Standard Abbe refractometry

CC(=O)c1cccs1 [2-acetylthiophene]
Settings | refractive index
283.15 K | 1.5705
285.65 K | 1.5692
288.15 K | 1.568
290.65 K | 1.567
293.15 K | 1.5658
295.65 K | 1.5646
298.15 K | 1.5633
300.65 K | 1.5622
303.15 K | 1.5609
305.65 K | 1.5599
308.15 K | 1.5586
310.65 K | 1.5573
313.15 K | 1.5562
315.65 K | 1.555
318.15 K | 1.5538
320.65 K | 1.5526
323.15 K | 1.5514
325.65 K | 1.5502
328.15 K | 1.549
330.65 K | 1.548
333.15 K | 1.5468
335.65 K | 1.5455
338.15 K | 1.5443
